# Measurements as given in patent US7022716B2, “Cyclic amine phenyl beta-3 adrenergic receptor agonists” (Wyeth, priority 2000, dated 2006).
# Where a name gives a salt, the structure may show the parent alone.
# Tested on: not given
# Assay: not given
# Conditions: not given
row,SMILES,melting point
1,Cl.Nc1ccc([C@H](O)CNC2CCN(c3ccc(CC4SC(=O)NC4=O)cc3)CC2)cn1 (some centres unmarked),182 °C (dec.)
2,CS(=O)(=O)Nc1cc(C(O)CNC2CCN(c3ccc(C=C4SC(=O)NC4=O)cc3)CC2)ccc1O (centres unmarked),> 200 °C (dec.)
3,"CS(=O)(=O)Nc1ccc(C(O)CNC2CCN(c3ccc(CC4SC(=O)NC4=O)cc3)CC2)cn1 (centres unmarked) (as salt: salt) [Example 138, N-[5-(2-{1-[4-(2,4-Dioxo-thiazolidin-5-ylmethyl)-phenyl]-piperidin-4-ylamino}-1-hydroxy-ethyl)-pyridin-2-yl]-methanesulfonamide]",57 to 59 °C
4,"CS(=O)(=O)Nc1cc([C@@H](O)CNC2CCN(c3ccc(C(=O)NCC(=O)O)cc3)CC2)ccc1O (as salt: sodium) [Example 197, [(4-{4-[((2R)-2-Hydroxy-2-{4-hydroxy-3-[(methylsulfonyl)amino]phenyl}ethyl)amino]-1-piperidinyl}benzoyl)amino]acetic acid]",> 85 °C (dec.)
5,"CC(C)C[C@H](NC(=O)c1ccc(N2CCC(NC[C@H](O)c3ccc(O)c(NS(C)(=O)=O)c3)CC2)cc1)C(=O)O (as salt: sodium) [Example 199, (2S)-2-(4-{4-[(2R)-2-Hydroxy-2-(4-hydroxy-3-methanesulfonylamino-phenyl)-ethylamino]-piperidin-1-yl}-benzoylamino)-4-methyl-pentanoic acid]",> 177 °C (dec.)
6,"CS(=O)(=O)Nc1cc([C@@H](O)CNC2CCN(c3ccc(C(=O)N4CCC[C@H]4C(=O)O)cc3)CC2)ccc1O (as salt: sodium) [Example 201, 1-(4-{4-[(2R)-2-Hydroxy-2-(4-hydroxy-3-methanesulfonylamino-phenyl)-ethylamino]-piperidin-1-yl}-benzoyl)-pyrrolidine-(2S)-2-carboxylic acid]",> 220 °C (dec.)
7,"CC(C)[C@H](NC(=O)c1ccc(N2CCC(NC[C@H](O)c3ccc(O)c(NS(C)(=O)=O)c3)CC2)cc1)C(=O)O (as salt: sodium) [Example 203, (2S)-2-(4-{4-[(2R)-2-Hydroxy-2-(4-hydroxy-3-methanesulfonylamino-phenyl)-ethylamino]-piperidin-1-yl}-benzoylamino)-3-methyl-butyric acid]",> 135 °C (dec.)
8,"CS(=O)(=O)Nc1cc([C@@H](O)CNC2CCN(c3ccc(C(=O)N[C@@H](Cc4ccccc4)C(=O)O)cc3)CC2)ccc1O (as salt: sodium) [Example 205, (2S)-2-(4-{4-[(2R)-2-Hydroxy-2-(4-hydroxy-3-methanesulfonylamino-phenyl)-ethylamino]-piperidin-1-yl}-benzoylamino)-3-phenyl-propionic acid]",> 160 °C (dec.)
9,CS(=O)(=O)Nc1cc(C(O)CNC2CCN(c3ccc(CC4SC(=O)NC4=O)cc3)CC2)ccc1O (centres unmarked) [Example 78],> 150 °C (dec.)
10,"CC(C)S(=O)(=O)Nc1cc([C@@H](O)CNC2CCN(c3ccc(CC4SC(=O)NC4=O)cc3)CC2)ccc1O (stereo partly drawn) [Example 94, (R)-Propane-2-sulfonic acid [5-(2-{1-[4-(2,4-dioxo-thiazolidin-5-ylmethyl)-phenyl]-piperidin-4-ylamino}-1-hydroxy-ethyl)-2-hydroxy-phenyl]-amide]",> 175 °C (dec.)
11,"O=C1NC(=O)C(Cc2ccc(N3CCC(NC[C@H](O)c4csc(C(F)(F)F)n4)CC3)cc2)S1 (stereo partly drawn) [Example 106, 5-{4-[4-({(2S)-2-Hydroxy-2-[2-(trifluoromethyl)-1,3-thiazol-4-yl]ethyl}amino)piperidine-1-yl]benzyl}-1,3-thiazolidine-2,4-dione]",108 to 113 °C
12,"O=C1NC(=O)C(Cc2ccc(N3CCC(NC[C@H](O)c4cc(-c5ccc(Cl)c(Cl)c5)no4)CC3)cc2)S1 (stereo partly drawn) [Example 110, 5-{4-[4-({(2S)-2-[3-(3,4-Dichlorophenyl)isoxazol-5-yl]-2-hydroxyethyl}-amino)piperidine-1-yl}benzyl}-1,3-thiazole-2,4-dione]",110 °C
13,"Cc1ccc(OC[C@@H](O)CNC2CCN(c3ccc(CC4SC(=O)NC4=O)cc3)CC2)cn1 (stereo partly drawn) [Example 128, 5-(4-{4-[(2S)-2-Hydroxy-3-(6-methyl-pyridin-3-yloxy)-propylamino]-piperidin-1-yl}-benzyl)-thiazolidine-2,4-dione]",87 °C (dec.)

# Molecular target: T1, human β3 adrenergic receptor (Homo sapiens, UniProt P13945)
# T1 construct: Full length β3 AR clones (402 amino acids) containing the last 6 amino acids of hβ3-AR are prepared; expressed in transfected cells; host or cells: CHO (Chinese hamster ovary) cells
# T1 sequence (P13945 whole entry): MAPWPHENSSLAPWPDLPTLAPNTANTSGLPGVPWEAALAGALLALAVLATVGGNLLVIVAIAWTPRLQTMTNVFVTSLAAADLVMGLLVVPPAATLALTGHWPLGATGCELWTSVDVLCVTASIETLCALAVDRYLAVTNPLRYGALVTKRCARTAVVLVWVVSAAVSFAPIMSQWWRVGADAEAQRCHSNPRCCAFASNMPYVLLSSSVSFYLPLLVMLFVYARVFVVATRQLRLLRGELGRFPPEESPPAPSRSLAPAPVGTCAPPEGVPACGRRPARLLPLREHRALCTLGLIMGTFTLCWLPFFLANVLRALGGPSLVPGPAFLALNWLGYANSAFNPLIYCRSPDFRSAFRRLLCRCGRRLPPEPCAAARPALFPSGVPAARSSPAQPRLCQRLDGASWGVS
# Assay: cAMP (SPA) response in CHO cells transfected with human β3 adrenergic receptor
# Assay type: cell-based
# Parameters: key: fraction of maximal isoproterenol (10^-5 M) response
# Conditions: maximal response relative to maximal response of isoproterenol at 10^-5 M
# Method in brief: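 Reactions were stopped with 0.2N HCl and neutralised, and cAMP was measured by SPA. Activity is expressed as percent of the maximal 10^−5 M isoproterenol response.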
row,SMILES,IA(β3)
1,"COc1ccc(S(=O)(=O)Nc2ccc(N3CCC(NCC(O)c4cccc(O)c4)CC3)cc2)cc1OC (centres unmarked) [Example 361, N-[4-(4-{[2-Hydroxy-2-(3-hydroxyphenyl)ethyl]amino}-1-piperidinyl)phenyl]-3,4-dimethoxybenzenesulfonamide]",0.55
2,"O=c1[nH]c2cccc(OC[C@@H](O)CNC3CCN(c4ccc(NS(=O)(=O)c5cccs5)cc4)CC3)c2[nH]1 [Example 362, N-{4-[4-({(2S)-2-Hydroxy-3-[(2-oxo-2,3-dihydro-1H-benzimidazol-4-yl)oxy]propyl}-amino)-1-piperidinyl]phenyl}-2-thiophenesulfonamide]",0.9
3,"CCOC(=O)CC(=O)Nc1ccc(N2CCC(NC[C@H](O)c3ccc(O)c(NS(C)(=O)=O)c3)CC2)cc1 [Example 371, Ethyl 3-(4-{4-[((2R)-2-hydroxy-2-{4-hydroxy-3-[(methylsulfonyl)amino]phenyl}-ethyl)-amino]-1-piperidinyl}anilino)-3-oxopropanoate]",0.91
4,"CS(=O)(=O)Nc1cc([C@@H](O)CNC2CCN(c3ccc(NC(=O)CC(=O)O)cc3)CC2)ccc1O [Example 372, 3-(4-{4-[((2R)-2-Hydroxy-2-{4-hydroxy-3-[(methylsulfonyl)amino]phenyl}ethyl)amino]-1-piperidinyl}anilino)-3-oxopropanoic acid]",1
5,"CCOC(=O)CNC(=O)Nc1ccc(N2CCC(NC[C@H](O)c3ccc(O)c(NS(C)(=O)=O)c3)CC2)cc1 [Example 377, Ethyl {[(4-{4-[((2R)-2-hydroxy-2-{4-hydroxy-3-[(methylsulfonyl)amino]phenyl}-ethyl)amino]-1-piperidinyl}anilino)carbonyl]amino}acetate]",0.66
6,"CS(=O)(=O)Nc1cc([C@@H](O)CNC2CCN(c3ccc(NC(=O)NCC(=O)O)cc3)CC2)ccc1O [Example 378, {[(4-{4-[((2R)-2-Hydroxy-2-{4-hydroxy-3-[(methylsulfonyl)amino]phenyl}ethyl)amino]-1-piperidinyl}anilino)carbonyl]amino}acetic acid]",0.94
7,"O=C(CCl)Nc1ccc(N2CCC(NC[C@H](O)COc3cccc4[nH]c(=O)[nH]c34)CC2)cc1 [Example 382, 2-Chloro-N-{4-[4-({(2S)-2-hydroxy-3-[(2-oxo-2,3-dihydro-1H-benzimidazol-4-yl)oxy]propyl}amino)-1-piperidinyl]phenyl}acetamide]",0.64
8,"O=C(CN1CCOCC1)Nc1ccc(N2CCC(NC[C@H](O)COc3cccc4[nH]c(=O)[nH]c34)CC2)cc1 [Example 383, N-{4-[4-({(2S)-2-Hydroxy-3-[(2-oxo-2,3-dihydro-1H-benzimidazol-4-yl)oxy]propyl}-amino)-1-piperidinyl]phenyl}-2-(4-morpholinyl)acetamide]",0.64
9,"CN(C)CC(=O)Nc1ccc(N2CCC(NC[C@H](O)COc3cccc4[nH]c(=O)[nH]c34)CC2)cc1 [Example 384, 2-(Dimethylamino)-N-{4-[4-({(2S)-2-hydroxy-3-[(2-oxo-2,3-dihydro-1H-benzimidazol-4-yl)oxy]propyl}amino)-1-piperidinyl]phenyl}acetamide]",0.64
10,"COc1ccc(C(=O)Nc2ccc(N3CCC(NCC(O)c4ccc(O)c(NS(C)(=O)=O)c4)CC3)cc2)cc1OC (centres unmarked) [Example 385, N-(4-{4-[(2-Hydroxy-2-{4-hydroxy-3-[(methylsulfonyl)amino]phenyl}ethyl)amino]-1-piperidinyl}phenyl)-3,4-dimethoxybenzamide]",1.12
11,"CCCCOc1ccc(S(=O)(=O)Nc2ccc(N3CC(NC[C@H](O)COc4ccc(O)cc4)C3)cc2)cc1 [Example 411, 4-Butoxy-N-[4-(3-{[(2S)-2-hydroxy-3-(4-hydroxyphenoxy)propyl]amino}-1-azetidinyl)phenyl]benzenesulfonamide]",0.49
12,"COc1ccc(S(=O)(=O)Nc2ccc(N3CC(NC[C@H](O)COc4ccc(O)cc4)C3)cc2)cc1OC [Example 412, N-[4-(3-{[(2S)-2-hydroxy-3-(4-hydroxyphenoxy)propyl]amino}-1-azetidinyl)phenyl]-3,4-dimethoxybenzenesulfonamide]",0.56
13,"CC(=O)Nc1ccc(S(=O)(=O)Nc2ccc(N3CC(NC[C@H](O)COc4ccc(O)cc4)C3)cc2)cc1 [Example 413, N-(4-{[4-(3-{[(2S)-2-Hydroxy-3-(4-hydroxyphenoxy)propyl]amino}-1-azetidinyl)anilino]-sulfonyl}phenyl)acetamide]",0.73
14,"CC(=O)Nc1ccc(N2CC(NC[C@H](O)COc3cccc4[nH]c5ccccc5c34)C2)cc1 [Example 415, N-[4-(3-{[(2S)-3-(9H-Carbazol-4-yloxy)-2-hydroxypropyl]amino}-1-azetidinyl)phenyl]acetamide]",0.35
15,"COc1ccc(S(=O)(=O)Nc2ccc(N3CC(NC[C@H](O)COc4cccc5[nH]c6ccccc6c45)C3)cc2)cc1OC [Example 416, N-[4-(3-{[(2S)-3-(9H-Carbazol-4-yloxy)-2-hydroxypropyl]amino}-1-azetidinyl)phenyl]-3,4-dimethoxybenzenesulfonamide]",0.48
16,"CC(=O)Nc1ccc(S(=O)(=O)Nc2ccc(N3CC(NC[C@H](O)COc4cccc5[nH]c6ccccc6c45)C3)cc2)cc1 [Example 417, N-(4-{[4-(3-{[(2S)-3-(9H-Carbazol-4-yloxy)-2-hydroxypropyl]amino}-1-azetidinyl)anilino]sulfonyl}phenyl)acetamide]",0.71
